Test results taken from US20080096832A1, “Method for Improving the Pharmacokinetics of an NNRTI” (Boehringer Ingelheim International GmbH, priority 2002, published 2008).
Read-outs that look alike come from different tables or passages of the source.

Experiments:
[1] = Pharmacokinetic drug-drug interaction of the compound of the formula I and ritonavir in healthy volunteers (single dose, alone and with RTV); type: in vivo, human; design: CL/F: unit not given here; conditions: for AUC(0-t) / Cmax / Tmax / half-life / AUC: human, plasma
Method: A single-dose, single treatment group was studied to assess the pharmacokinetic drug-drug interaction potential between the protease inhibitors the compound of the formula I and ritonavir. The compound of the formula I was administered as a solution containing 5 or 12.5 mg of the compound of the formula I, with excipients, and ritonavir was administered as the 100-mg marketed product (Norvir) 12 hours preceding and co-administration with the compound of the formula I . Baseline pharmacokinetic data for the compound of the formula I was obtained as single doses up through 100 mg. The co-administered drugs were compared with baseline data. The study was conducted in healthy volunteers Pharmacokinetic analyses were based on the results obtained in these subjects. Pharmacokinetic parameters such as AUC, Cmax, tmax, oral clearance, and terminal half-life were determined using standard noncompartmental techniques.

CYP3A4 = CYP3A4 (Homo sapiens, UniProt P08684); test: Metabolism of the compound of the formula I by the cytochromes P450; type: in vitro ADME; conditions: result in words
[2] = 12.5 mg oral single dose alone, mean
[3] = 25 mg oral single dose alone, mean
[4] = 50 mg oral single dose alone, mean
[5] = 75 mg oral single dose alone, mean
[6] = 100 mg oral single dose alone, mean
[7] = oral, 5 mg solution + RTV 100 mg, mean
[8] = oral, 5 mg, 5 mg alone (no RTV), mean
[9] = oral, 12.5 mg solution + RTV 100 mg, mean
[10] = oral, 12.5 mg, 12.5 mg alone (no RTV), mean (Table 1)
[11] = po, 12.5 mg, 12.5 mg oral single dose alone, mean (Table 2)
[12] = po, 25 mg, 25 mg oral single dose alone, mean
[13] = po, 50 mg, 50 mg oral single dose alone, mean
[14] = po, 75 mg, 75 mg oral single dose alone, mean
[15] = po, 100 mg, 100 mg oral single dose alone, mean
[16] = with ritonavir 100 mg versus alone

Chain of CYP3A4 (P08684 whole entry): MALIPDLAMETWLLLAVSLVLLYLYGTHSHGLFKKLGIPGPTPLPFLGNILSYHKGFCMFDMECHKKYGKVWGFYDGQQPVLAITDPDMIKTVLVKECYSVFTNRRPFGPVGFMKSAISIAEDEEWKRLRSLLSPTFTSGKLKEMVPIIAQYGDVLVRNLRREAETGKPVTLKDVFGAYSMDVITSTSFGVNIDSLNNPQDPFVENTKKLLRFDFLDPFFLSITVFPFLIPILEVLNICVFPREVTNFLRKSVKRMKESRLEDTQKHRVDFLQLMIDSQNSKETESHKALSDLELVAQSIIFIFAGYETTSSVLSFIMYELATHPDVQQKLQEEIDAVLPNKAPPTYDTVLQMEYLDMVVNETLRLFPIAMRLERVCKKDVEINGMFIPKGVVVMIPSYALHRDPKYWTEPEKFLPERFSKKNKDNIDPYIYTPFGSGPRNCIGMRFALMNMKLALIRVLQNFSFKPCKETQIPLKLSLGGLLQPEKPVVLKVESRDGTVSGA

% Renally eliminated as unchanged drug [1, 2]: 0.21%
CL/F [1, 2]: 243495.99
% Renally eliminated as unchanged drug [1, 3]: 0.41%
CL/F [1, 3]: 200752.61
% Renally eliminated as unchanged drug [1, 4]: 0.48%
CL/F [1, 4]: 124815.56
% Renally eliminated as unchanged drug [1, 5]: 0.60%
CL/F [1, 5]: 263277.68
% Renally eliminated as unchanged drug [1, 6]: 0.81%
CL/F [1, 6]: 75634.54
AUC(0-t) ([1]; oral, 5 mg solution + RTV 100 mg (12 h before and co-administered), mean): 578 ng·h/mL
Cmax [1, 7]: 22.8 ng/mL
Tmax [1, 7]: 4 h
half-life ([1]; oral, 5 mg solution + RTV 100 mg, mean, read-out: half-life (converted)): 15.3 h
AUC(0-t) [1, 8]: 13.6 ng·h/mL
Cmax [1, 8]: 3.64 ng/mL
Tmax [1, 8]: 1.5 h
AUC(0-t) ([1]; oral, 12.5 mg solution + RTV 100 mg (12 h before and co-administered), mean): 1700 ng·h/mL
Cmax [1, 9]: 74.1 ng/mL
Tmax [1, 9]: 3.59 h
half-life ([1]; oral, 12.5 mg solution + RTV 100 mg, mean, read-out: half-life (converted)): 15.9 h
AUC(0-t) [1, 10]: 57.1 ng·h/mL
Cmax [1, 10]: 14.8 ng/mL
Tmax [1, 10]: 1 h
half-life ([1]; oral, 12.5 mg, 12.5 mg alone (no RTV), mean (Table 1), read-out: half-life (converted)): 4.1 h
half-life ([1]; oral, co-administration with ritonavir 100 mg, read-out: half-life upon co-administration with ritonavir (converted)): 15 h
half-life ([1]; oral, without ritonavir, single dose range of 1-100 mg, read-out: half-life without ritonavir (converted)): ~2 h
Cmax [1, 11]: 14.8 ng/mL
Tmax [1, 11]: 1 h
half-life ([1]; po, 12.5 mg, 12.5 mg oral single dose alone, mean (Table 2), read-out: Half-life (converted)): 4.1 h
Cmax [1, 12]: 41.6 ng/mL
Tmax [1, 12]: 0.83 h
half-life ([1]; po, 25 mg, 25 mg oral single dose alone, mean, read-out: Half-life (converted)): 3.44 h
Cmax [1, 13]: 164 ng/mL
Tmax [1, 13]: 0.67 h
half-life ([1]; po, 50 mg, 50 mg oral single dose alone, mean, read-out: Half-life (converted)): 2.5 h
Cmax [1, 14]: 348 ng/mL
Tmax [1, 14]: 0.67 h
half-life ([1]; po, 75 mg, 75 mg oral single dose alone, mean, read-out: Half-life (converted)): 2.21 h
Cmax [1, 15]: 937 ng/mL
Tmax [1, 15]: 0.55 h
half-life ([1]; po, 100 mg, 100 mg oral single dose alone, mean, read-out: Half-life (converted)): 1.86 h
AUC ([1]; 12.5 mg oral single dose alone, mean (Table 2)): 63.1 ng·h/mL
AUC [1, 3]: 139 ng·h/mL
AUC [1, 4]: 437 ng·h/mL
AUC [1, 5]: 817 ng·h/mL
AUC [1, 6]: 1390 ng·h/mL
increase of AUC (plasma concentrations as measured by area under the curve) in the presence of ritonavir [1, 16]: ~40 fold
increase of mean Cmax in the presence of ritonavir [1, 16]: 5-6 fold
metabolism by the cytochromes P450, especially the CYP3A4 isoform (CYP3A4): surprisingly rapid metabolism
Structure (SMILES): CCN1c2ncc(CCOc3cc[n+]([O-])c4ccccc34)cc2C(=O)N(C)c2cccnc21 [the compound of the formula I, 5,11-Dihydro-11-ethyl-5-methyl-8-{2-{(1-oxido-4-quinolinyl)oxy}ethyl}-6H-dipyrido[3,2-b:2′,3′-e] [1,4]diazepin-6-one]
